Assay results as given in ChEMBL document CHEMBL1144455, “A small molecule-kinase interaction map for clinical kinase inhibitors” (Nat Biotechnol, 2005).

Columns and labels:
[1] = target: Vascular endothelial growth factor receptor 2 (Homo sapiens, UniProt P35968)
[2] = target: T1, Serine/threonine-protein kinase 4 (Homo sapiens, UniProt Q13043)
T1 sequence (Q13043 whole entry): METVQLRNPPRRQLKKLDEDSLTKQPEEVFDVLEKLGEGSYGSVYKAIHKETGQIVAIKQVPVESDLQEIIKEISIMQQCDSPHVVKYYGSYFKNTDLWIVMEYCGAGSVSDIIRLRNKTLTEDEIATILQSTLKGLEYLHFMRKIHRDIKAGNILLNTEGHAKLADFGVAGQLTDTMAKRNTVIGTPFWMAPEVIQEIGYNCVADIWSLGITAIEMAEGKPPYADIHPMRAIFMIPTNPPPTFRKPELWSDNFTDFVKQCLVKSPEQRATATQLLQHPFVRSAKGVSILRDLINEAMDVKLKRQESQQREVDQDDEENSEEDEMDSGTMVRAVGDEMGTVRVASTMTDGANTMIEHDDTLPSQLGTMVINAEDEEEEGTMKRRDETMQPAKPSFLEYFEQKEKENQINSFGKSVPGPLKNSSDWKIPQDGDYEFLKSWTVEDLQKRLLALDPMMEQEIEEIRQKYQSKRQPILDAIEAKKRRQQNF

Ephrin type-B receptor 1 = target: T2, Ephrin type-B receptor 1 (Homo sapiens, UniProt P54762)
T2 sequence (P54762 whole entry): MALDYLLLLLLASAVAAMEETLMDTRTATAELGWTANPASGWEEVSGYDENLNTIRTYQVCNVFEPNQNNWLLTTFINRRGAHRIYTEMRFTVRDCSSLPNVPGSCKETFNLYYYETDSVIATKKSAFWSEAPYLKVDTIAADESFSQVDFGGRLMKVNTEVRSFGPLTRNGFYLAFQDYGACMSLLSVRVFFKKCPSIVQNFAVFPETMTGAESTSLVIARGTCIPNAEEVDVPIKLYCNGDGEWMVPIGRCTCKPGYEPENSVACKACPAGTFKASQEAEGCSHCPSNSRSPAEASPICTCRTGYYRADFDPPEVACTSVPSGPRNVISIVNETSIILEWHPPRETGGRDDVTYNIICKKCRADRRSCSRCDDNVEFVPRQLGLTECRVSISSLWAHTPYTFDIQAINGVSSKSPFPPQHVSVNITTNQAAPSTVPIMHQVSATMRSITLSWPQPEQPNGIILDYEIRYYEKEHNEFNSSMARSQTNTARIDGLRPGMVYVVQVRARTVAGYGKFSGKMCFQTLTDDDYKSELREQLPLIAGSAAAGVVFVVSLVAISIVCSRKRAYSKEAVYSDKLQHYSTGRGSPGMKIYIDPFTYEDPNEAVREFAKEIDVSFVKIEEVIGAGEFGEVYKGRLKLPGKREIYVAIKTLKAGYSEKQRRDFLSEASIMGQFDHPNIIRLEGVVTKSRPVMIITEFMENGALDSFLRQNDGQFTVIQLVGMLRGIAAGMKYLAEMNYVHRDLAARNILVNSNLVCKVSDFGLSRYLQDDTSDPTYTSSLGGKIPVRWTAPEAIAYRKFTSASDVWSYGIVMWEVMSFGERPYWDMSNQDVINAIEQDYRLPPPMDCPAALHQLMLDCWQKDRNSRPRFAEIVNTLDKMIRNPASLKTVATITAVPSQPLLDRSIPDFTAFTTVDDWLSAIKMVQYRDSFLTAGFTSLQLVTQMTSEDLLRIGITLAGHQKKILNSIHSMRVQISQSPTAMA

Angiopoietin-1 receptor = Angiopoietin-1 receptor (Homo sapiens, UniProt Q02763)
Angiopoietin-1 receptor, sequence (Q02763 whole entry): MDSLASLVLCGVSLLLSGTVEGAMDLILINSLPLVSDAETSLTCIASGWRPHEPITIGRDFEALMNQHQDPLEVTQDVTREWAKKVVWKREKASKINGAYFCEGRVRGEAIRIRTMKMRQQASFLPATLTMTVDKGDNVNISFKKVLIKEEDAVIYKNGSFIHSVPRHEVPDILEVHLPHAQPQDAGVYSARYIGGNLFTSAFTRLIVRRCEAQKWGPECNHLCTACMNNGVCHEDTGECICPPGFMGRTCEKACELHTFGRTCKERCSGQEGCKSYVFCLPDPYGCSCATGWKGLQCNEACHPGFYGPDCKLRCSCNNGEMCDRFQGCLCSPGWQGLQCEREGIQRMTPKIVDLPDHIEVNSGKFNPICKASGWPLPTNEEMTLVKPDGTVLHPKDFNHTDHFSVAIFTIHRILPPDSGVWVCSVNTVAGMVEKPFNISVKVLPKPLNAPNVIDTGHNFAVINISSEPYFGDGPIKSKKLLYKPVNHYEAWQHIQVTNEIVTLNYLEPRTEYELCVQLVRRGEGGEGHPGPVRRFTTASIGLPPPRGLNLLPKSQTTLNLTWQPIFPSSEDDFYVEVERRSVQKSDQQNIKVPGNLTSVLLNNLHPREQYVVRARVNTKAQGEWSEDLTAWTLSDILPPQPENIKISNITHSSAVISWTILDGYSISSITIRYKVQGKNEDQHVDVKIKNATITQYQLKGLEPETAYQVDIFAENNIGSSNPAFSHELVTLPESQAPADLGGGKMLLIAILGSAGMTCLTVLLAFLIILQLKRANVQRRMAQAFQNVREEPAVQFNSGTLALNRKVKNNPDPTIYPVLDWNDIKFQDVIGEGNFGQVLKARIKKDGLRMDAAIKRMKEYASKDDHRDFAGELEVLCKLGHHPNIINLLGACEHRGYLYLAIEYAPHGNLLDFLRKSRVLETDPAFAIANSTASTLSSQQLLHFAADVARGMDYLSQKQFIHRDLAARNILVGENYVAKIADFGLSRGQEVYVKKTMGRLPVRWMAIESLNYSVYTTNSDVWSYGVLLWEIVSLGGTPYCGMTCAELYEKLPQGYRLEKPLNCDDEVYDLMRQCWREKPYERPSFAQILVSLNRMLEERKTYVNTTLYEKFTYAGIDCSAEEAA

[3] = target: Tyrosine-protein kinase Fyn (Homo sapiens, UniProt P06241)
Tyrosine-protein kinase Fyn, sequence (P06241 whole entry): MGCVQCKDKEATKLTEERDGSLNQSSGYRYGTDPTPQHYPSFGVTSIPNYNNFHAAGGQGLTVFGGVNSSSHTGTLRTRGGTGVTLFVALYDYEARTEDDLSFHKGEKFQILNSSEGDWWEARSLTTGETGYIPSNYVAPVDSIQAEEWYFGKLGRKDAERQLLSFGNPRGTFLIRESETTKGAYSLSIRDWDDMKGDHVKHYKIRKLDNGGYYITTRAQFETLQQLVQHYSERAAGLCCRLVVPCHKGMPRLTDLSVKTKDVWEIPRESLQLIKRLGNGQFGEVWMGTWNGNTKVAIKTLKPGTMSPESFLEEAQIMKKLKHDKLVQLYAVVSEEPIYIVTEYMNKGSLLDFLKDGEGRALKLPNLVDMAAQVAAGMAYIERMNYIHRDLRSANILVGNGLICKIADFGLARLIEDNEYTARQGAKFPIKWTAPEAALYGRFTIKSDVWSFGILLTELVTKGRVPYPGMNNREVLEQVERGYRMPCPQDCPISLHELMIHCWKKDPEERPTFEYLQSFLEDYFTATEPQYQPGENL

[4] = target: Death-associated protein kinase 2 (Homo sapiens, UniProt Q9UIK4)
Death-associated protein kinase 2, sequence (Q9UIK4 whole entry): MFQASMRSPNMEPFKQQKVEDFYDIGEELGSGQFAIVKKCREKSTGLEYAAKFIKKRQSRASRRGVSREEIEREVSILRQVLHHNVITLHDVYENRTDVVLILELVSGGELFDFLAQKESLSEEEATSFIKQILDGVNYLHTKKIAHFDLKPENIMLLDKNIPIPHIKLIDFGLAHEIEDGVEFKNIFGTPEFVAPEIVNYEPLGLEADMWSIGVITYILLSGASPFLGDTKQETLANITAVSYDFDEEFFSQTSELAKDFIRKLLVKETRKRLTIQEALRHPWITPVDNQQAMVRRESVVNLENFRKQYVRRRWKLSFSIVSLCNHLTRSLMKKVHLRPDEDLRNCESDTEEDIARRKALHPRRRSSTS

[5] = target: Fibroblast growth factor receptor 1 (Homo sapiens, UniProt P11362)
Fibroblast growth factor receptor 1, sequence (P11362 whole entry): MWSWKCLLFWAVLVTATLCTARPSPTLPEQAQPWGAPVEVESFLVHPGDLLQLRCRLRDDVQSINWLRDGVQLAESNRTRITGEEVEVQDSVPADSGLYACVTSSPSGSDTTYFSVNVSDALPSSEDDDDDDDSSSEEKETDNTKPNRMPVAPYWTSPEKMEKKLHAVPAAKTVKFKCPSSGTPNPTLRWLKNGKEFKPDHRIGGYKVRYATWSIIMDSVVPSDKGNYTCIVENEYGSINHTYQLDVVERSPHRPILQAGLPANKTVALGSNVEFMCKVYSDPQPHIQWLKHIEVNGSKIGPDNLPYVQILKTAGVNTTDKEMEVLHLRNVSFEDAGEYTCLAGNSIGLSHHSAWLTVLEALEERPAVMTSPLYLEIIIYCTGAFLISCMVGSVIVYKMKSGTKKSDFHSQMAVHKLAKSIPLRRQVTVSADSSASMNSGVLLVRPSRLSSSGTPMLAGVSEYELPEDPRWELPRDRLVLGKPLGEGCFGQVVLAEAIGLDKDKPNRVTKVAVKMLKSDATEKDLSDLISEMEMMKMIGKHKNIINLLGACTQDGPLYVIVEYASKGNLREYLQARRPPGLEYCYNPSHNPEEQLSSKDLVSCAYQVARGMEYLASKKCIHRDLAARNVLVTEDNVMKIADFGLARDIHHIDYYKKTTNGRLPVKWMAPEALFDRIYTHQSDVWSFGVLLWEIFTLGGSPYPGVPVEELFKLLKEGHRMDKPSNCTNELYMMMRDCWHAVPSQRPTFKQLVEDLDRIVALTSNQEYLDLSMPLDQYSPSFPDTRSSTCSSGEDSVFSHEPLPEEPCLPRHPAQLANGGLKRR

[6] = target: T3, Membrane-associated tyrosine- and threonine-specific cdc2-inhibitory kinase (Homo sapiens, UniProt Q99640)
T3 sequence (Q99640 whole entry): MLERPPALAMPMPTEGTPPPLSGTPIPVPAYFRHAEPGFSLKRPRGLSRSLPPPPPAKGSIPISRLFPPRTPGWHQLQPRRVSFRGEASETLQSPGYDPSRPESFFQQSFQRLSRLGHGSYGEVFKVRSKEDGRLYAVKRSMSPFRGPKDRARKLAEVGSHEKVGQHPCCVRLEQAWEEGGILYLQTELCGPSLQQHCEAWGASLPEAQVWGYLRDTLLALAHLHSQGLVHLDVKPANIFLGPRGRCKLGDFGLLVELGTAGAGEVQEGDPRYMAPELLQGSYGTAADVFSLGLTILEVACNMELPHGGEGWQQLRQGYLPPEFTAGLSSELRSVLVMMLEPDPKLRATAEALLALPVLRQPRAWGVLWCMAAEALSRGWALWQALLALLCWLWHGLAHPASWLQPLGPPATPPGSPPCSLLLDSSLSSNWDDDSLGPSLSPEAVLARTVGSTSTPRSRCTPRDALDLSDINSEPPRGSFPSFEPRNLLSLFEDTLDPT

[7] = target: MAP kinase-interacting serine/threonine-protein kinase 2 (Homo sapiens, UniProt Q9HBH9)
MAP kinase-interacting serine/threonine-protein kinase 2, sequence (Q9HBH9 whole entry): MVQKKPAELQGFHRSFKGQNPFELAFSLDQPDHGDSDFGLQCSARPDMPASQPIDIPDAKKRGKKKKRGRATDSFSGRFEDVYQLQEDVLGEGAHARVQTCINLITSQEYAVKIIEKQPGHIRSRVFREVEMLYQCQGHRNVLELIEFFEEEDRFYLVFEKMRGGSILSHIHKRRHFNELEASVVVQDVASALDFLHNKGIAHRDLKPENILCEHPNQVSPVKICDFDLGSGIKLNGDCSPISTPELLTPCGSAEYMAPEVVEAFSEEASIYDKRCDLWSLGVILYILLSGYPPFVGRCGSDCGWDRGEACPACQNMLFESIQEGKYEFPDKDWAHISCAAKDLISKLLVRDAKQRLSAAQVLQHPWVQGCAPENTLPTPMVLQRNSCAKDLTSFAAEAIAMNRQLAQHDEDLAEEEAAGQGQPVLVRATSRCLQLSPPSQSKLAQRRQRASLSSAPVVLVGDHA

Measured: Kd

Vascular endothelial growth factor receptor 2, sequence (P35968 whole entry): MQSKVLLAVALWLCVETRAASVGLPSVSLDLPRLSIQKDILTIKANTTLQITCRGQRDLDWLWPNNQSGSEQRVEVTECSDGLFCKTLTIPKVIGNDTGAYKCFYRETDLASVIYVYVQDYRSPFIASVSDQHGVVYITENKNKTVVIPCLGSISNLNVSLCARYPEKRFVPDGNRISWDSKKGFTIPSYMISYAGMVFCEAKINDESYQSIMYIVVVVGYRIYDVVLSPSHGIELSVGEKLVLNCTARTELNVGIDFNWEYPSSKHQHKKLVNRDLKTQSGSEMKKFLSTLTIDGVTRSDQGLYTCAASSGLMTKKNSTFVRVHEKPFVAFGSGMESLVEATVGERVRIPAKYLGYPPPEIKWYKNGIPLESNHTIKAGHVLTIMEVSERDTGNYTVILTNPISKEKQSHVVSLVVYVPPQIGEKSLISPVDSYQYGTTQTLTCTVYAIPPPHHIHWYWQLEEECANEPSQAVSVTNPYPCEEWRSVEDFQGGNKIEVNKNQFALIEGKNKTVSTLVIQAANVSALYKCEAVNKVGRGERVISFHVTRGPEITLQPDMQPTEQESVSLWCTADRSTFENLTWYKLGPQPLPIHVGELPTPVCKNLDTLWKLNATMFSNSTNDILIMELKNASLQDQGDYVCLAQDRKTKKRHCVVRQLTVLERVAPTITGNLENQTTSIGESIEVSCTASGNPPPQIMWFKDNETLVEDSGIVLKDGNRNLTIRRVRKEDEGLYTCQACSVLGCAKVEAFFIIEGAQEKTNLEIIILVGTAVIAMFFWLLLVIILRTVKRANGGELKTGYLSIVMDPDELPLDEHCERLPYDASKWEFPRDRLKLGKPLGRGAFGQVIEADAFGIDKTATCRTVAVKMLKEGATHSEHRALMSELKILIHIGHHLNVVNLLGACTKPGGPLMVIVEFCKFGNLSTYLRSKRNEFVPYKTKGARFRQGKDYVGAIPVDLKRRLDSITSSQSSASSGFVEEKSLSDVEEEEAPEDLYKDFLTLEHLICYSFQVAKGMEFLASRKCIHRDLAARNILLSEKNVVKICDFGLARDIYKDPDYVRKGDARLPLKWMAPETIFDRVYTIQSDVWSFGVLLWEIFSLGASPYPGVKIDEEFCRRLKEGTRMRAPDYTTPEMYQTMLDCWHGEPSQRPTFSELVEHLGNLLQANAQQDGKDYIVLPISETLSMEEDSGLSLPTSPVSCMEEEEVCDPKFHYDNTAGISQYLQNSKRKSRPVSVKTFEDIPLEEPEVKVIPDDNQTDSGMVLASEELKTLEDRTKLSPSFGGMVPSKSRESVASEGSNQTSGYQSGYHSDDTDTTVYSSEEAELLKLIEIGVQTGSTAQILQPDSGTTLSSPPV

C#Cc1cccc(Nc2ncnc3cc(OCCOC)c(OCCOC)cc23)c1 [ERLOTINIB]
not listed: [7]
Not Active: all other assays above

Cc1ccc(NC(=O)c2ccc(CN3CCN(C)CC3)cc2)cc1Nc1nccc(-c2cccnc2)n1 [IMATINIB]
not listed: [3]
Not Active: all other assays above

O=c1ncn2nc(Sc3ccc(F)cc3F)ccc2c1-c1c(Cl)cccc1Cl [NEFLAMAPIMOD]
not listed: [1] | Ephrin type-B receptor 1
Not Active: all other assays above

CCOc1cc2ncc(C#N)c(Nc3ccc(F)c(Cl)c3)c2cc1NC(=O)/C=C/CN(C)C [PELITINIB]
Not Active: [1] | [7] | [4] | [5]

Oc1ccc(-c2nc(-c3ccc(F)cc3)c(-c3ccncc3)[nH]2)cc1 [SB-202190]
Not Active: all assays above

C[S+]([O-])c1ccc(-c2nc(-c3ccc(F)cc3)c(-c3ccncc3)[nH]2)cc1 (stereo not drawn) [SB-203580]
Not Active: all assays above

CC[C@H](CO)Nc1nc(NCc2ccccc2)c2ncn(C(C)C)c2n1 [SELICICLIB]
Not Active: all assays above

Oc1c2ccccc2c2c3c(cccc13)N=N2 [SP-600125]
not listed: [2] | [4] | [7]
Not Active: all other assays above

COc1cc2c(N3CCN(C(=O)Nc4ccc(OC(C)C)cc4)CC3)ncnc2cc1OCCCN1CCCCC1 [TANDUTINIB]
not listed: [1]
Not Active: all other assays above
